From patent US20050009840A1 (SUGEN, INC., priority 2003, published 2005)

What follows are compounds tested against T1, Met kinase domain (GST fusion protein) (Homo sapiens, UniProt P08581) (assay: Met transphosphorylation assay (ELISA, poly(glu-tyr) substrate)). Settings: read-out: Met IC50.
T1 construct: Purified GST fusion protein containing the Met kinase domain
Format: biochemical
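Also: Cell-free ELISA with plate-bound poly(Glu:Tyr 4:1) phosphorylated by GST-fused Met kinase domain plus ATP and Mn2+, phosphotyrosine detected by anti-phosphotyrosine antibody with HRP and ABTS read-out.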

T1 sequence (P08581 1078-1345 limits assumed): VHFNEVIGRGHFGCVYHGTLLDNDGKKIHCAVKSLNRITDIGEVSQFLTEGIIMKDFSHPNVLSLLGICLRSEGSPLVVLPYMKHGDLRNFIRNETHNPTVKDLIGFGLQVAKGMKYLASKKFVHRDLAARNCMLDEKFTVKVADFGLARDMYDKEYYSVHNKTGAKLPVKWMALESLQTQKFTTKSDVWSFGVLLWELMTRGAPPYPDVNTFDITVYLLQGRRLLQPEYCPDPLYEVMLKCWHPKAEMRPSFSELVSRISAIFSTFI

Going from `Nc1ncc(-c2cccc(NS(=O)(=O)CCN3CCC(O)CC3)c2)nc1OCc1c(F)ccc(F)c1Cl` [II-22, 2-(4-Hydroxy-piperidin-1-yl)-ethanesulfonic acid {3-[5-amino-6-(2-chloro-3,6-difluoro-benzyloxy)-pyrazin-2-yl]-phenyl}-amide] to `Nc1ncc(-c2cccc(NS(=O)(=O)CCN3CC[C@@H](O)C3)c2)nc1OCc1c(F)ccc(F)c1Cl` [II-31, 2-[(3R)-3-Hydroxy-pyrrolidin-1-yl]-ethanesulfonic acid {3-[5-amino-6-(2-chloro-3,6-difluoro-benzyloxy)-pyrazin-2-yl]-phenyl}-amide], the IC50 rises from 700 nM to 2160 nM (3.1-fold).

First: CC(=O)N1CCN(CCS(=O)(=O)Nc2cccc(-c3cnc(N)c(OCc4c(F)ccc(F)c4Cl)n3)c2)CC1 [II-23, 2-(4-Acetyl-piperazin-1-yl)-ethanesulfonic acid {3-[5-amino-6-(2-chloro-3,6-difluoro-benzyloxy)-pyrazin-2-yl]-phenyl]-amide]
Second: Nc1ncc(-c2cccc(NS(=O)(=O)CCN3CCN(C(=O)CO)CC3)c2)nc1OCc1c(F)ccc(F)c1Cl [II-29]
The IC50 of the first is 1.5-fold higher: 2790 nM for the first, 1820 nM for the second.

Compared with `Nc1ncc(-c2cccc(NS(=O)(=O)CCN3CCCCC3)c2)nc1OCc1c(F)ccc(F)c1Cl` [II-24, 2-Piperidin-1-yl-ethanesulfonic acid {3-[5-amino-6-(2-chloro-3,6-difluoro-benzyloxy)-pyrazin-2-yl]-phenyl}-amide], `Nc1ncc(-c2cccc(NS(=O)(=O)CCN3CCCC3)c2)nc1OCc1c(F)ccc(F)c1Cl` [II-27, 2-Pyrrolidin-1-yl-ethanesulfonic acid {3-[5-amino-6-(2-chloro-3,6-difluoro-benzyloxy)-pyrazin-2-yl]-phenyl}-amide] is 1.9-fold lower in IC50: 3500 nM for the first, 1800 nM for the second.

Going from `CCN(CC)CCS(=O)(=O)Nc1cccc(-c2cnc(N)c(OCc3c(F)ccc(F)c3Cl)n2)c1` [II-25, 2-Diethylamino-ethanesulfonic acid {3-[5-amino-6-(2-chloro-3,6-difluoro-benzyloxy)-pyrazin-2-yl]-phenyl}-amide] to `CN(C)CCS(=O)(=O)Nc1cccc(-c2cnc(N)c(OCc3c(F)ccc(F)c3Cl)n2)c1` [II-28, 2-Dimethylamino-ethanesulfonic acid {3-[5-amino-6-(2-chloro-3,6-difluoro-benzyloxy)-pyrazin-2-yl]-phenyl}-amide], the IC50 falls from 3700 nM to 2280 nM (1.6-fold). The second is the more potent here.

Going from `Nc1ncc(-c2cccc(NS(=O)(=O)CCN3CCOCC3)c2)nc1OCc1c(F)ccc(F)c1Cl` [II-26, 2-Morpholin-4-yl-ethanesulfonic acid {3-[5-amino-6-(2-chloro-3,6-difluoro-benzyloxy)-pyrazin-2-yl]-phenyl}-amide] to `Nc1ncc(-c2cccc(NS(=O)(=O)CCNC3CC3)c2)nc1OCc1c(F)ccc(F)c1Cl` [II-32, 2-Cyclopropylamino-ethanesulfonic acid {3-[5-amino-6-(2-chloro-3,6-difluoro-benzyloxy)-pyrazin-2-yl]-phenyl}-amide], the IC50 falls from 3300 nM to 2130 nM (1.5-fold). The second is the more potent here.

Compared with `Nc1ncc(-c2cccc(NS(=O)(=O)CCNCC3CC3)c2)nc1OCc1c(F)ccc(F)c1Cl` [II-30, 2-(Cyclopropylmethyl-amino)-ethanesulfonic acid {3-[5-amino-6-(2-chloro-3,6-difluoro-benzyloxy)-pyrazin-2-yl]-phenyl}-amide], `Nc1ncc(-c2ccc(C(=O)N3CC[C@H](N)C3)cc2)nc1OCc1c(F)ccc(F)c1Cl` [II-36, {4-[5-Amino-6-(2-chloro-3,6-difluoro-benzyloxy)-pyrazin-2-yl]-phenyl}-[(3S)-3-amino-pyrrolidin-1-yl]-methanone] is 5-fold lower in IC50: 1840 nM for the first, 370 nM for the second.

`Nc1ncc(-c2ccc(C(=O)N3CCC[C@@H]3CN3CCCC3)cc2)nc1OCc1c(F)ccc(F)c1Cl` [II-34, {4-[5-Amino-6-(2-chloro-3,6-difluoro-benzyloxy)-pyrazin-2-yl]-phenyl)-[(2R)-2-pyrrolidin-1-ylmethyl-pyrrolidin-1-yl]-methanone] and `Nc1ncc(-c2ccc(C(=O)NCCN3CCCC3)cc2)nc1OCc1c(F)ccc(F)c1Cl` [II-35, 4-[5-Amino-6-(2-chloro-3,6-difluoro-benzyloxy)-pyrazin-2-yl]-N-(2-pyrrolidin-1-yl-ethyl)-benzamide] are within 1.5-fold of each other in IC50: 150 nM for the first, 130 nM for the second.
